Assay results from PMC7679302 (Environmental Science and Pollution Research International, 2020).
Marks after values point to notes of the source that are not given here.

Key:
[1] = Acute 48 h aqueous toxicity test with glochidia (viability); assay type: in vivo, Lampsilis siliquoidea; conditions: Lampsilis siliquoidea, in vivo
Text: (§1) Aqueous acute toxicity tests were based on the American Society for Testing and Materials (ASTM [2013]) protocols for conducting toxicity tests with early life stages of freshwater mussels. Gravid female L. siliquoidea were collected from an established reference site in the Maitland River (ON) and kept in ECCC’s Aquatic Life Research Facility (Canada Centre for Inland Waters, Burlington, ON). Glochidia were removed from gravid females and their viability (i.e., ability to close their valves) was assessed. Glochidia from a minimum of three gravid mussels whose glochidia exceeded 90% viability were pooled and exposed to a geometric series of nominal concentrations (0, 0.0025, 0.025, 0.25, 2.5, 25 mg/L) of either FIN or MGA plus a solvent control. Tests were conducted in 250-mL glass beakers (unaerated and unfed) with culture water. After 24 and 48 h of exposure, glochidia viability was assessed in a minimum of 100 glochidia per replicate (four replicates). Water samples were collected at the beginning and end of the tests, and frozen pending chemical analysis.

[2] = test system: Lampsilis siliquoidea glochidia; assay: as above; assay type: in vivo; conditions: Lampsilis siliquoidea, in vivo, 48 h
Text: as §1

[3] = test system: juvenile Lampsilis siliquoidea; assay: Chronic 28-day spiked sediment test with juvenile mussels (survival, burial ability); conditions: for Burial ability (percent of surviving mussels), mean (SEM) / Survival (percent of initial animals added), mean (SEM): n = 5
Text: Freshwater mussels (L. siliquoidea, 6–8 months old, ~ 1 cm in length) were purchased from Missouri State University (Springfield, MO, USA).

amphipod Hyalella azteca = assay: Chronic 42-day sediment test with amphipods (survival, growth, reproduction, sex ratio); conditions: for Females (percent of surviving amphipods), mean (SEM) / Survival (percent of initial animals added), mean (SEM): n = 10
Experimental: Dechlorinated municipal tap water was used for cultures and toxicity tests. Both cultures and toxicity tests were held at 25 °C with a photoperiod of 16 h light:8 h dark, and amphipods were fed finely ground Tetra-Min fish food flakes (Tetra GMBH, Melle, Germany). Juvenile amphipods were removed weekly from breeding containers and used in toxicity tests.
Two tests were conducted for each compound. Amphipods were fed ground Tetra-Min twice per week during weeks 1 and 2, three times during week 3, and 5 mg three times per week during weeks 4 to 6. Surviving adults were counted, weighed as a group, and examined under a dissecting microscope to identify males (enlarged second gnathopods) and females, and the number of juveniles was recorded.

[4] = test system: juvenile mussels L. siliquoidea; assay: 21 d range-finding sediment test, juvenile mussels; assay type: in vivo; conditions: n = 3
Experimental: (§2) Range-finding tests of 21 d were completed with juvenile mussels, amphipods and mayflies to assist with the selection of the concentrations to be used in final testing. Nominal concentrations in range-finding tests were 0.1, 1, 10, 100, and 1000 mg/kg, based on dry weight of sediment. Range-finding test conditions were identical to those described in the manuscript for chronic sediment tests with the exception of test duration.
After 21 d, mussels were recovered and transferred to Petri dishes filled with clean sand and housed in large trays of aerated culture water to assess burial ability.

amphipods H. azteca = assay: 21 d range-finding sediment test, amphipods; assay type: in vivo, Hyalella azteca; conditions: n = 3
Experimental: as §2
Amphipods were fed 2.5 mg Tetra-min twice per week during weeks one and two, and three times during week three. At the end of the test, amphipods were removed and the survivors were counted and weighed.

mayflies Hexagenia spp. = assay: 21 d range-finding sediment test, mayflies; assay type: in vivo; conditions: n = 3
Experimental: as §2
At the end of the test, survival and wet weight of mayflies in each replicate were recorded.

mayfly Hexagenia spp. [5] = conditions: Hexagenia spp. (mixture of H. rigida and H. limbata), in vivo, 42 days, pH 8.3
Experimental: (§3) Nominal concentrations were 10, 30, 100, 300, and 1000 mg/kg for juvenile freshwater mussels and 3, 10, 30, 100, and 300 mg/kg for amphipods and mayflies, and were based on the results of range-finding tests (detailed in Supplementary Materials). […] For each PPCP, the concentration of solvent used was consistent across treatments.
(§4) The sediments were mixed for 24 h, left open in a fume hood for 3–5 days for the acetone to evaporate, and then stored at 4 °C until use. […] All beakers were aerated for 1 week under testing conditions prior to the addition of organisms, and throughout the tests. Duration of toxicity tests varied depending on the species and endpoint of interest (see below). Water quality parameters were collected for each test (Table S1).
(§5) Briefly, eggs of Hexagenia spp. […] Prior to testing, eggs were hatched and nymphs were grown in aerated 20-L aquaria containing culture sediment (depth: 2.5 cm) and culture water (depth: 10 cm) for 6 to 7 weeks.
(§6) Ten mayflies (5–8 mg wet weight) were added to each beaker (three replicates for each control and PPCP concentration). Two tests were conducted for each compound. […] At the end of the test, mayflies were removed and surviving animals from each of the three replicates were counted and weighed.

[6] = test system: rainbow trout (Oncorhynchus mykiss); conditions: ref FDA-CDER [1996]; cited from earlier work
Daphnia magna [7] = conditions: ref FDA-CDER [1996]; cited from earlier work
mayfly Hexagenia spp. [8] = assay: Chronic 42-day sediment test with mayflies (survival, growth); conditions: measured, n = 6
Experimental: as §3, §4, §5, §6

[9] = test system: Japanese medaka (Oryzias latipes); set-up: method as in Lalone et al. [2013]; conditions: 21-day exposure; ref Lalone et al. [2013]; cited from earlier work
[10] = test system: fathead minnow (Pimephales promelas); set-up: method as in Lalone et al. [2013]; conditions: 21-day exposure; ref Lalone et al. [2013]; cited from earlier work
Daphnia magna [11] = test system: Daphnia magna; set-up: method as in Lalone et al. [2013]; conditions: 21-day exposure to as much as 500 μg/L; ref Lalone et al. [2013]; cited from earlier work
[12] = finasteride 4 mg/kg dw sediment (0.03 mg/L water), measured
[13] = finasteride 11 mg/kg dw sediment (0.1 mg/L water), measured
[14] = finasteride 35 mg/kg dw sediment (0.5 mg/L water), measured
[15] = finasteride 96 mg/kg dw sediment (2 mg/L water), measured
[16] = finasteride 430 mg/kg dw sediment (20 mg/L water), measured
[17] = survival, dry weight sediment, measured
[18] = survival, overlying water, measured
[19] = finasteride 1 mg/kg dw sediment (0.003 mg/L water), measured, 42-day
[20] = finasteride 4 mg/kg dw sediment (0.03 mg/L water), measured, 42-day
[21] = finasteride 11 mg/kg dw sediment (0.1 mg/L water), measured, 42-day
[22] = finasteride 35 mg/kg dw sediment (0.5 mg/L water), measured, 42-day
[23] = finasteride 96 mg/kg dw sediment (2 mg/L water), measured, 42-day
[24] = survival, growth, 42-day, dry weight sediment, measured

## CC(C)(C)NC(=O)[C@H]1CC[C@H]2[C@@H]3CC[C@H]4NC(=O)C=C[C@]4(C)[C@H]3CC[C@]12C [Finasteride]
[1]
  viability at 48 h, 0.003 mg/L: 90%
  viability at 48 h, 0.03 mg/L: 87%
  viability at 48 h, 0.3 mg/L: 87%
  viability at 48 h, 2.5 mg/L: 88%
  viability at 48 h, 23 mg/L: 85%
[2]
  ChV (geometric mean of NOEC and LOEC): 7.6 mg/L
  LOEC: 23 mg/L^a
  NOEC: 2.5 mg/L
[3]; [12]
  Burial ability (percent of surviving mussels), mean (SEM): 90 (5.5) %
  Survival (percent of initial animals added), mean (SEM): 94 (2.4) %
[3]; [13]
  Burial ability (percent of surviving mussels), mean (SEM): 98 (2.0) %
  Survival (percent of initial animals added), mean (SEM): 94 (4.0) %
[3]; [14]
  Burial ability (percent of surviving mussels), mean (SEM): 88 (4.0) %
  Survival (percent of initial animals added), mean (SEM): 98 (2.0) %
[3]; [15]
  Burial ability (percent of surviving mussels), mean (SEM): 82 (5.5) %
  Survival (percent of initial animals added), mean (SEM): 72 (8.6)^d %
[3]; [16]
  Burial ability (percent of surviving mussels), mean (SEM): 0 (0)^d %
  Survival (percent of initial animals added), mean (SEM): 10 (5.5)^d %
[3]; measured
  Overlying water concentration at which both survival and burial ability were reduced: 20 mg/L
  Sediment concentration at which both survival and burial ability were reduced: 430 mg/kg
[3]; survival, dry weight sediment
  ChV, sediment: 58 mg/kg
[3]; [17]
  LOEC, sediment: 96 mg/kg
  NOEC, sediment: 35 mg/kg
[3]; survival, overlying water
  ChV, overlying water: 1 mg/L
[3]; [18]
  LOEC, overlying water: 2 mg/L
  NOEC, overlying water: 0.5 mg/L
Amphipod Hyalella azteca; 96 mg/kg (2 mg/L) FIN, 42-day
  Survival, % of pooled controls: 65%
Amphipod Hyalella azteca; Hyalella azteca, in vivo, 42 days, pH 8.3
  NOEC, overlying water: 0.5 mg/L
Amphipod Hyalella azteca; [19]
  Females (percent of surviving amphipods), mean (SEM): 57 (4.2) %
  Survival (percent of initial animals added), mean (SEM): 96 (1.4) %
Amphipod Hyalella azteca; [20]
  Females (percent of surviving amphipods), mean (SEM): 53 (3.0) %
  Survival (percent of initial animals added), mean (SEM): 93 (1.7) %
Amphipod Hyalella azteca; [21]
  Females (percent of surviving amphipods), mean (SEM): 50 (4.4) %
  Survival (percent of initial animals added), mean (SEM): 94 (1.7) %
Amphipod Hyalella azteca; [22]
  Females (percent of surviving amphipods), mean (SEM): 52 (2.7) %
  Survival (percent of initial animals added), mean (SEM): 92 (2.0) %
Amphipod Hyalella azteca; [23]
  Females (percent of surviving amphipods), mean (SEM): 69 (4.4)^d %
  Survival (percent of initial animals added), mean (SEM): 63 (8.3)^d %
Amphipod Hyalella azteca; survival, growth, 42-day, dry weight sediment
  ChV, sediment: 58 mg/kg
Amphipod Hyalella azteca; [24]
  LOEC, sediment: 96 mg/kg
  NOEC, sediment: 35 mg/kg
Amphipod Hyalella azteca; survival, growth, 42-day, overlying water
  ChV, overlying water: 1 mg/L
Amphipod Hyalella azteca; survival, growth, 42-day, overlying water, measured
  LOEC, overlying water: 2 mg/L
[4]; 0.1 mg/kg dry weight nominal
  Burial (%), mean (SEM): 72 (6.3) %
  Survival (%), mean (SEM): 100 (0.0) %
[4]; 1 mg/kg dry weight nominal
  Burial (%), mean (SEM): 93 (3.3) %
  Survival (%), mean (SEM): 100 (0.0) %
[4]; 10 mg/kg dry weight nominal
  Burial (%), mean (SEM): 87 (6.7) %
  Survival (%), mean (SEM): 100 (0.0) %
[4]; 100 mg/kg dry weight nominal
  Burial (%), mean (SEM): 90 (0.0) %
  Survival (%), mean (SEM): 100 (0.0) %
[4]; 1000 mg/kg dry weight nominal
  Burial (%), mean (SEM): 77 (5.1) %
  Survival (%), mean (SEM): 53 (6.7)^a %
Amphipods H. azteca; 0.1 mg/kg dry weight nominal
  Growth, mean (SEM): 1.1 (0.12) mg wet weight
  Survival (%), mean (SEM): 100 (0.0) %
Amphipods H. azteca; 1 mg/kg dry weight nominal
  Growth, mean (SEM): 1.1 (0.04) mg wet weight
  Survival (%), mean (SEM): 100 (0.0) %
Amphipods H. azteca; 10 mg/kg dry weight nominal
  Growth, mean (SEM): 1.2 (0.05) mg wet weight
  Survival (%), mean (SEM): 100 (0.0) %
Amphipods H. azteca; 100 mg/kg dry weight nominal
  Growth, mean (SEM): 0.79 (0.06) mg wet weight
  Survival (%), mean (SEM): 100 (0.0) %
Amphipods H. azteca; 1000 mg/kg dry weight nominal
  Survival (%), mean (SEM): 0^a (0.0) %
Mayflies Hexagenia spp.; 0.1 mg/kg dry weight nominal
  Growth, mean (SEM): 30 (0.5) mg wet weight
  Survival (%), mean (SEM): 100 (0.0) %
Mayflies Hexagenia spp.; 1 mg/kg dry weight nominal
  Growth, mean (SEM): 30 (0.6) mg wet weight
  Survival (%), mean (SEM): 100 (0.0) %
Mayflies Hexagenia spp.; 10 mg/kg dry weight nominal
  Growth, mean (SEM): 31 (0.3) mg wet weight
  Survival (%), mean (SEM): 100 (0.0) %
Mayflies Hexagenia spp.; 100 mg/kg dry weight nominal
  Growth, mean (SEM): 29 (1.3) mg wet weight
  Survival (%), mean (SEM): 93 (3.3)^a %
Mayflies Hexagenia spp.; 1000 mg/kg dry weight nominal
  Growth, mean (SEM): 4.5^a,^d (0.0) mg wet weight
  Survival (%), mean (SEM): 3.3^a (3.3) %
Mayfly Hexagenia spp. [5]
  ChV, overlying water: 1 mg/L
  LOEC, overlying water: 2 mg/L
  LOEC, sediment: 96 mg/kg
  NOEC, overlying water: 0.5 mg/L
  NOEC, sediment: 35 mg/kg
[6]
  96-h LC50: 20 µg/mL
Daphnia magna [7]
  96-h LC50: 21 µg/mL
Mayfly Hexagenia spp. [8]; finasteride 1 mg/kg dw sediment (0.003 mg/L water)
  Survival (percent of initial animals added), mean (SEM): 98 (1.7) %
Mayfly Hexagenia spp. [8]; finasteride 4 mg/kg dw sediment (0.03 mg/L water)
  Survival (percent of initial animals added), mean (SEM): 97 (2.1) %
Mayfly Hexagenia spp. [8]; finasteride 11 mg/kg dw sediment (0.1 mg/L water)
  Survival (percent of initial animals added), mean (SEM): 100 (0.0) %
Mayfly Hexagenia spp. [8]; finasteride 35 mg/kg dw sediment (0.5 mg/L water)
  Survival (percent of initial animals added), mean (SEM): 90 (2.6)^d,i %
Mayfly Hexagenia spp. [8]; finasteride 96 mg/kg dw sediment (2 mg/L water)
  Survival (percent of initial animals added), mean (SEM): 97 (2.1) %

## CC(=O)S[C@@H]1CC2=CC(=O)CC[C@]2(C)[C@H]2CC[C@@]3(C)[C@@H](CC[C@@]34CCC(=O)O4)[C@H]12 [spironolactone]
[9]
  Concentration that reduced fecundity: 50 ng/mL
[10]
  Concentration that reduced fecundity: 50 ng/mL
Daphnia magna [11]
  Effect on reproduction: no effect
